The target of one test is ACE (Homo sapiens, UniProt P12821). Description: in vitro inhibitory activity on ACE. The test is classed as biochemical. The following applies: 0.016 unit/ml ACE; 2.0 mM hippuryl-L-histidyl-L-leucine, pH 8.4, 37°C, 30 minutes. The method, then: The inhibitory activity on ACE was measured according to the method described in Biochem. Pharmacolo., 20, 1637 (1971). That is, a 100 mM boric acid/sodium carbonate buffer solution (pH 8.4) containing 2.0 mM of hippuryl-L-histidyl-L-leucine, 0.016 unit/ml of ACE, 0.8 M of NaCl, and a predetermined amount of the sample compound was prepared and the reaction was carried out at 37°C for 30 minutes. The amount of hippuric acid produced by the ACE activity was measured to determine the inhibitory activity.

A further test concerns the target T1, NEP (Rattus norvegicus, UniProt P07861).
T1 construct: The fractions with the NEP activity were collected, and was used as the enzyme source for the test; from tissue; host or cells: kidneys of male SD rats
T1 sequence (P07861 1-750): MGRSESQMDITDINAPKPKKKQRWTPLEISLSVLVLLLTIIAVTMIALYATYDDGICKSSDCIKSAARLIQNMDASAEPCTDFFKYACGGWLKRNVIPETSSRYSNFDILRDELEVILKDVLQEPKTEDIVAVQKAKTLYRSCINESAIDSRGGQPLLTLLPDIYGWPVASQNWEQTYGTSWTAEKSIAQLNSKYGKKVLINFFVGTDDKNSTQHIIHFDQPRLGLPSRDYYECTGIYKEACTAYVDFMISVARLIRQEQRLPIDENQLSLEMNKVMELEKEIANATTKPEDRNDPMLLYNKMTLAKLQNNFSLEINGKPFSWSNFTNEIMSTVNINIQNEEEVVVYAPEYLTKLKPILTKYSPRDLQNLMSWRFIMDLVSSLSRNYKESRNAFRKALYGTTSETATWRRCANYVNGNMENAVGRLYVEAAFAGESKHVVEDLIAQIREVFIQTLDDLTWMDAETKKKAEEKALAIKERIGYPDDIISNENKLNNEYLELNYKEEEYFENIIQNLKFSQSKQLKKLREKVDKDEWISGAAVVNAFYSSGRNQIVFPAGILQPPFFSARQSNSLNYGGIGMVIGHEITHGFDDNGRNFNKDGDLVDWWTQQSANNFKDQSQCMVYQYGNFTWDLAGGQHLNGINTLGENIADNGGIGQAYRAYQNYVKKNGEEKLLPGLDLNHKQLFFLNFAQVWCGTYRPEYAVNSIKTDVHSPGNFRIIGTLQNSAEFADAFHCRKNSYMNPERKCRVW
Description: in vitro inhibitory activity on NEP. The test is classed as biochemical. The following applies: NEP from kidneys of male SD rats; 0.4 mM glutaryl-Ala-Ala-Phe-4-methoxy-β-naphthylamide, pH 7.4, 37°C, 1 hour. The method, then: NEP was prepared as follows in accordance with the process as described in Peptide, 9, 173 (1988). Kidneys of male SD rats were homogenized with 10 times by volume of a tris/HCl buffer solution (pH 7.0) containing mannitol and magnesium chloride. The homogenate was centrifuged (700 × g) to give a supernatant liquid. To the supernatant liquid was added n-octyl-β-D-glucoside in an amount to give a final concentration of 1 %, followed by stirring at 4°C for 1 hour, thereby solubilizing the enzyme. The solution was dialyzed against 5 mM HEPES/0.1% Triton (pH 7.4). The inner liquid was applied to a DE-52 column (2.5 cm i.d. × 15 cm) equilibrated with 5 mM HEPES/0.1% Triton (pH 7.4). The column was eluted with 500 ml of a NaCl solution having a linear concentration gradient of 0-300 mM. The fractions with the NEP activity were collected, and was used as the enzyme source for the test.
The inhibitory activity on NEP was measured according to the method described in Biochemistry, 20, 4942 (1981). That is, 250 µl of a 50 mM tris/HCl buffer solution (pH 7.4) containing 0.4 mM of glutaryl-Ala-Ala-Phe-4-methoxy-β-naphthylamide, 0.25 unit/ml of leucine aminopeptidase, a predetermined amount of the sample compound and NEP was prepared and the reaction was carried out at 37°C for 1 hour. The amount of 4-methoxy-β-naphthylamide produced by the NEP activity was measured to determine the inhibitory activity.

We go through two molecules from patent EP0640594A1, “Hydantoin derivative as metalloprotease inhibitor” (FUJIREBIO INC., priority 1993, dated 1995).

Chain of ACE (P12821 30-1306, species assumed): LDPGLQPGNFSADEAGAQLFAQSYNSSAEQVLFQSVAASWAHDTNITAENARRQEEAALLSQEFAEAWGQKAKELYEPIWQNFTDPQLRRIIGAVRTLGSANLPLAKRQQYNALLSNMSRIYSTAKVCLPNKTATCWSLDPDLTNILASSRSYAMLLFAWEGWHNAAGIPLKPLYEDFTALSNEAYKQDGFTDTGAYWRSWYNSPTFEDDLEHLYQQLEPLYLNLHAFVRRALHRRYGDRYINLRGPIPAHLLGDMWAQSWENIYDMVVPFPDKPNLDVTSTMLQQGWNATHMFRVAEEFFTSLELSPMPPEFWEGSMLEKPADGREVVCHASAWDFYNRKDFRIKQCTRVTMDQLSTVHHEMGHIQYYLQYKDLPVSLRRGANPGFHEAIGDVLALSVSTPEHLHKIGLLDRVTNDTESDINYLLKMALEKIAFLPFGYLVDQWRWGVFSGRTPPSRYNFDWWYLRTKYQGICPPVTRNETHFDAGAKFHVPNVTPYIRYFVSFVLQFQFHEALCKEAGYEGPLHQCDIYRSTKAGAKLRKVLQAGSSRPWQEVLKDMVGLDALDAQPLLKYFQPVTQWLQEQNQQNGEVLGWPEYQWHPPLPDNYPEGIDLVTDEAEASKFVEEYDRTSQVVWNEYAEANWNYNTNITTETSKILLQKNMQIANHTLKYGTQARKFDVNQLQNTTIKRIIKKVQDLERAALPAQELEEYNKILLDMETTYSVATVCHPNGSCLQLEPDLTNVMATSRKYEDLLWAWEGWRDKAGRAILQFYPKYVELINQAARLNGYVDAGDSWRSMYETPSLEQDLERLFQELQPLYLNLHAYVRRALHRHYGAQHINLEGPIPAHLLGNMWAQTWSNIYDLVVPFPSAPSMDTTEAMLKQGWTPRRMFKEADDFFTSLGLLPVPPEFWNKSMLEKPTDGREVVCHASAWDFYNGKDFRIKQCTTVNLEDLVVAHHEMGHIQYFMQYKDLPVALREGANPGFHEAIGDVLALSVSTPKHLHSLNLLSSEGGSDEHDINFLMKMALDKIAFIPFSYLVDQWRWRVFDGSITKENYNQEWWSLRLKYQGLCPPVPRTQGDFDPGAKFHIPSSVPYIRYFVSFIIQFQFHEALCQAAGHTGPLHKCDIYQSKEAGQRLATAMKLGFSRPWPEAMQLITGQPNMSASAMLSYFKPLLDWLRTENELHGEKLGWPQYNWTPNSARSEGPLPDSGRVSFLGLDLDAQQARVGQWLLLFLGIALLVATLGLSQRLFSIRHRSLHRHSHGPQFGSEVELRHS

Turning to `O=C(O)CN1C(=O)N(C(CS)Cc2ccccc2)C(=O)C12CCCC2` (stereo not shown) [Example 41, 1-(carboxymethyl)-3-(1-mercapto-3-phenyl-2-propyl)hydantoin-5-spirocyclopentane], the IC50 on ACE and against NEP was 460 nM each time.

As for `CC(C)CC(CS)N1C(=O)N(CC(=O)O)C2(CCCC2)C1=O` (stereo not shown) [Example 67, 1-(carboxymethyl)-3-(1-mercapto-4-methyl-2-pentyl)hydantoin-5-spirocyclopentane], the IC50 was 510 nM against ACE and 160 nM at NEP.
